The values below are quoted from earlier work in patent US20140271529A1, “ANTIFUNGAL COMPOSITIONS FOR THE TREATMENT OF SECONDARY SKIN AND NAIL INFECTIONS” (ALC Therapeutics, LLC, priority 2013, published 2014).

For series [1] the following is noted: 14C-labelled griseofulvin dissolved in the solvent; human skin in vitro.
For series [2] the following is noted: human, in vivo.

Take `C[S+](C)[O-]` [DMSO, dimethylsulfoxide]: in series [1], the “ratios of penetration of griseofulvin in the various solvents” value (“ratios of penetration of griseofulvin” for short) is listed as 60.
Regarding `CCO` [alcohol], the “ratios of penetration of griseofulvin” value in series [1] was 3.
Take `c1ccccc1` [benzene]: the “ratios of penetration of griseofulvin” value in series [1] is 1.
As to `CN(C)C=O` [dimethylformamide], the “ratios of penetration of griseofulvin” value in series [1] is on record as 7.
panitumumab: in series [2], the “acute paronychia, patients affected” value is recorded as not above 45%.
